Experimental data from patent US8173682B2, “Substituted pyridones as inhibitors of poly(ADP-ribose) polymerase (PARP)” (Aventis Pharmaceuticals Inc., priority 2004, dated 2012).
pEC50: −log10 of the molar value. Structures can show the parent of a compound that is named as a salt.

Assays:
[1] = system: intracellular synthesis of poly(ADP-ribose) in HL60 cells; experiment: Cell-based PARP assay (poly(ADP-ribose) immunodetection in fixed cells); settings: Homo sapiens, HL-60, overnight incubation with compound, serum-free media
Method: The following example illustrates the efficacy of the compounds of this invention in inhibiting the effects of PARP in a cell based assay.
Reagents: Media RMPI 1640+Glutamax: Gibco 61870-044); TBST/milk, TBST (Sigma T93039) containing 5% skimmed milk (Nestle Carnation nonfat dry milk)
HL60 cells at […] in serum free media are seeded into the wells of a 96-well plate at 100 μL/well. The plate is pre-incubated for 3 hr under normal tissue culture conditions. One hundred μL of serum-free media containing compound at 2× the required concentration in 0.6% DMSO are added (or 0.6% DMSO only to controls and blanks). The plate is incubated overnight under normal tissue culture conditions, then centrifuged at 190×g for 5 min at 4° C. to pellet cells. The media is carefully removed by aspiration, and the cells are incubated in 100 μL/well ice-cold 0.56% KCl for 2 min on ice. The plate is centrifuged as above to pellet cells, the KCl removed by aspiration, and 100 μL/well ice-cold methanol added. After 4 min on ice, methanol is removed by aspiration and the cells air-dried for 10-15 min at rt. The cells are washed with PBS×3, then washed with TBST/milk (1 wash, 5 min incubation at rt). The cells are incubated with 100 μL/well 0.25% Triton X 100 in PBS for 10 min at RT, then washed x# with PBS and ×1 with TBST. The cells are blocked for 1 hr with TBST/milk (200 μL/well) and then washed ×1 with TBST. The fixed cells are incubated with primary antibody (Calbiochem cat no. 528815) at 1:2000 dilution in TBST/milk (100 μL/well, overnight at 4 deg C.). The cells are washed with TBST (2 rinses, 1×15 min, 2×5 min at RT). The cells are incubated with secondary antibody (anti-rabbit Ig-biotin conjugate, Amersham RPN1004) in TBST/milk at 1:3500 dilution, 100 μL/well for 1 hr at RT. The cells are washed with TBST (2 rinses, 1×15 min, 2×5 min at RT). The cells are then incubated with 100 μL/well of 4-MUP (Sigma, M3168) in the dark for 4 hrs. The fluorescence is read using a plate reader (excitation at 360 nm, emission at 440 nm). To calculate compound effects, the fluorescence of the blank (no cells) is subtracted from all data. Fluorescence obtained with a standard cell-permeable potent inhibitor at 30 μM is subtracted from all other groups as this appears to represent a true blank. Compound effects can then be determined: a PARP inhibitor blocks the intracellular synthesis of poly(ADP-ribose), and results in a decreased reactivity (reduced final fluorescence) with primary antibody in the fixed and permeabilized cells.
The results obtained from this study are expressed as EC50 (median effective concentration of the test compound that was effective in preventing the cell death—expressed in micromolar (μM) concentration) for each of the tested compounds and are summarized in Table 2.

[2] = biological target: T1, recombinant human PARP (PARP1) (Homo sapiens, UniProt P09874); experiment: PARP enzyme assay, Method A (radioactivity or 'ELISA' enzyme assay with partially purified enzyme); assay type: biochemical; settings: recombinant human PARP preparation, radioactive or ELISA enzyme assay
T1 construct: Full length human PARP (PARP1) is assembled from PCR fragments; His6 tag with TEV site, from the pFastBac-HTb vector (own knowledge of the vector); made in house; host or cells: insect cells, baculovirus (Bac-to-Bac, Gibco-BRL)
Summary of the method: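 Partially purified recombinant full-length His-tagged human PARP1, baculovirus-expressed. Radioactive format: 100 μg/mL sonicated DNA, 100 μg/mL histones, 100 mM Tris pH 8.0, 10 mM MgCl2, 200 μM labeled NAD, 10 min 37 °C or 60 min RT, TCA-precipitated counts. ELISA format: 250 μM NAD plus biotin-NAD on histone plates, TMB A450.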

T1 sequence (P09874 whole entry, the tested form may be a part): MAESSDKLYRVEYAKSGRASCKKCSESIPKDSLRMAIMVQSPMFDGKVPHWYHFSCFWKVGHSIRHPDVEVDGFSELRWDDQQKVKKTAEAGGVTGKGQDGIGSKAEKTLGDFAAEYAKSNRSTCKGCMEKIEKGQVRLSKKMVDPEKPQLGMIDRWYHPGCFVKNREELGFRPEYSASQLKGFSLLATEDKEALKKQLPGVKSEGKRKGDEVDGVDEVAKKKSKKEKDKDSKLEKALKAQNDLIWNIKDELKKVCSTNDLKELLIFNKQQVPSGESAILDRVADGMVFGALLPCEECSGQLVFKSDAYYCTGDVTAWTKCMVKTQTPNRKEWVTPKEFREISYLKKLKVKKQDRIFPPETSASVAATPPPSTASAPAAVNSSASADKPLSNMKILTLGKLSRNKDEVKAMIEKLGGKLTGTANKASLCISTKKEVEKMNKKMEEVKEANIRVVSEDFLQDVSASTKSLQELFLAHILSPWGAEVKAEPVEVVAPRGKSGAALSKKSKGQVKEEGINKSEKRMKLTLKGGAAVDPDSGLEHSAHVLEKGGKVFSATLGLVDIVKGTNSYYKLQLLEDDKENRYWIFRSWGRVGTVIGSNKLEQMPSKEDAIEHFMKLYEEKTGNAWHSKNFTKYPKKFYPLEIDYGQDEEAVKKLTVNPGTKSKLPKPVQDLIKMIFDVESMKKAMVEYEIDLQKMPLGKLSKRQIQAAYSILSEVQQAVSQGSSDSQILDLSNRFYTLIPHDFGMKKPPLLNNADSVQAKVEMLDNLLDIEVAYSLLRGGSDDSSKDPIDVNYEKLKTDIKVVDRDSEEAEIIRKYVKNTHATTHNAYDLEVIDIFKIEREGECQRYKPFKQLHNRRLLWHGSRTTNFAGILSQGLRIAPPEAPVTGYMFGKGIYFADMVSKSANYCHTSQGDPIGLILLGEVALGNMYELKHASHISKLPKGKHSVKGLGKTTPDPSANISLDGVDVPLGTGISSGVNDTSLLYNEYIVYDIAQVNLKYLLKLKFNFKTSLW

| pEC50 [1] | IC50 [2] | Compound |
| --- | --- | --- |
| 6.30 | 0.07 µM | CCc1cc(-c2ccc(S(=O)(=O)NC3CCN(Cc4ccccc4)CC3)s2)c(C)[nH]c1=O [Example 39, 5-(5-Ethyl-2-methyl-6-oxo-1,6-dihydropyridin-3-yl)thiophene-2-sulfonic acid (1-benzylpiperidin-4-yl)amide hydrochloride] |
| 6.62 | 0.1 µM | CCc1cc(-c2ccc(S(=O)(=O)NCCc3ccncc3)s2)c(C)[nH]c1=O [Example 109, 5-(5-Ethyl-2-methyl-6-oxo-1,6-dihydropyridin-3-yl)thiophene-2-sulfonic acid (2-pyridin-4-yl-ethyl)amide hydrochloride] |
